The source of these data is patent publication US12029731B2, “Acyl benzo[d]thiazol-2-amine and their methods of use” (Biohaven Pharmaceutical Holding Company Ltd., priority 2016, dated 2024).

The test system of test [1] is C8161 cells. The settings on record: positive control, in comparison with no treatment and DMSO treated; cited from earlier work.
Test [2] relates to C8161 cells. The following applies: C8161 human melanoma cells; cited from earlier work.
For test [3], the system named is Stage III and IV melanoma. In words: Phase 0 human clinical trial of riluzole in melanoma patients. The class given is in vivo. The following applies: after only 14 days of treatment. The source says:
We have recently shown that riluzole has dramatic anti-melanoma activity in vitro cellular assays, in mice and in a Phase 0 human clinical trial. […] However, the therapeutic utility of riluzole itself in ALS and eventually for melanoma is very constrained by rapid first-pass metabolism in the liver and an exceptionally high level of patient-to-patient variability in the extent of the Cyp1A2-mediated oxidative metabolism that is observed.

“Also recorded” adds a separate entry of the source.

For `Nc1nc2ccc(OC(F)(F)F)cc2s1` [riluzole], the C8161 cell growth entry in the test with C8161 cells [1] is on record as “dose-dependent suppression”. The “effect on excess cellular glutamate” value in the test with C8161 cells [2] was “inhibits excess cellular gluatamate”. In test [3], the “patients with clinical or radiologic evidence of tumor response” value was “four of 12; also recorded: four of twelve”.
